Data taken from patent publication US5807535A, “Metal complexes of hydroxyaryl containing aminocarboxylic acid chelating agents” (Australian Nuclear Science & Technology Organisation, priority 1992, dated 1998).
Where two headings read alike, the source gives them in different places.

Experiments:
[1] = Biodistribution of 67Ga complexes in mice; type: in vivo, balb/c mice
Protocol: To ligand (50 μL, 10 mg/mL, 0.2 M NaOAc, […]) was added ^67 Ga citrate (18.5 MBq) and the resultant mixture diluted to 1 mL (0.2 M NaOAc, pH 7). The pH was adjusted to 12 with 1 M NaOH (20 μL) and heated at 40° C. for 40 min. The final volume was adjusted (to 5 mL) with saline and sterilised by filtering through a 0.22 μm filter.
Each animal was injected via tail vein with ^67 Ga complex (100 μL, ~3.7×10^5 Bq). Animals were sacrificed at various time intervals (5 animals per time point/6 time points). Data are illustrated in FIG. 26-30 and in Tables 13-17.
Each ^67 Ga-ligand complex has been evaluated in balb/c mice. […] (see FIG. 26-30).

[2] = Biodistribution of 99mTc complexes in rats; type: in vivo, Australian Albino Wistar Rats; conditions: rats; for tissue uptake at 0.5 min / tissue uptake at 1 min / tissue uptake at 0.05 h / tissue uptake at 5 min / tissue uptake at 10 min: rat; for tissue uptake at 0.5 min: 30 sec
Protocol: A typical method of radiolabelling of the chelator was achieved by dissolving the chelator in a basic solution of saline. The pH was then adjusted to approx. 6 with HCl. Excess stannous chloride was added to the resultant solution followed by one equivalent volume of sodium ^99m TcO4 (10-50 mCi/ml). Final concentration of the chelator was approx. 1 mg/ml. The efficacy of labelling was determined by ITLC-SG. For each product only one main radiochemical species was observed. Each complex was diluted to 15 μCi/100 μl with saline. […] (See FIGS. 1A and 1B).
Selected data from biodistribution results of technetium-99m complexes of No. 1, No. 2 and No 4 in the liver, kidney and blood at 3 minutes is tabulated below.

[3] = blood, read-out: biodistribution blood
[4] = bone, read-out: biodistribution bone
[5] = brain, read-out: biodistribution brain
[6] = eyes, read-out: biodistribution eyes
[7] = heart, read-out: biodistribution heart
[8] = kidneys, read-out: biodistribution kidneys
[9] = liver, read-out: biodistribution liver
[10] = lungs, read-out: biodistribution lungs
[11] = muscle, read-out: biodistribution muscle
[12] = pancreas, read-out: biodistribution pancreas
[13] = skin, read-out: biodistribution skin
[14] = spleen, read-out: biodistribution spleen
[15] = stomach, read-out: biodistribution stomach
[16] = tail, read-out: biodistribution tail
[17] = thymus, read-out: biodistribution thymus
[18] = thyroid, read-out: biodistribution thyroid
[19] = total git, read-out: biodistribution tot GIT

O=C(O)CN(CCN(CC(=O)O)CC(=O)Nc1ccccc1O)CC(=O)Nc1ccccc1O [Compound 1]
biodistribution bone ([1]; 1 min): 5.07 % ID | biodistribution kidney ([1]; 1 min): 9.28 % ID | biodistribution liver ([1]; 1 min): 15.45 % ID | biodistribution muscle ([1]; 1 min): 22.75 % ID | biodistribution skin ([1]; 1 min): 11.72 % ID | biodistribution spleen ([1]; 1 min): 0.29 % ID | biodistribution bone ([1]; 3 min): 3.30 % ID | biodistribution kidney ([1]; 3 min): 5.26 % ID | biodistribution liver ([1]; 3 min): 24.21 % ID | biodistribution muscle ([1]; 3 min): 12.70 % ID | biodistribution skin ([1]; 3 min): 13.76 % ID | biodistribution spleen ([1]; 3 min): 0.14 % ID | biodistribution bone ([1]; 5 min): 2.83 % ID | biodistribution kidney ([1]; 5 min): 4.37 % ID | biodistribution liver ([1]; 5 min): 25.79 % ID | biodistribution muscle ([1]; 5 min): 12.14 % ID | biodistribution skin ([1]; 5 min): 13.02 % ID | biodistribution spleen ([1]; 5 min): 0.1 % ID | biodistribution bone ([1]; 10 min): 2.20 % ID | biodistribution kidney ([1]; 10 min): 1.91 % ID | biodistribution liver ([1]; 10 min): 22.77 % ID | biodistribution muscle ([1]; 10 min): 26.13 % ID | biodistribution skin ([1]; 10 min): 8.47 % ID | biodistribution spleen ([1]; 10 min): 0.06 % ID | biodistribution bone ([1]; 30 min): 0.50 % ID | biodistribution kidney ([1]; 30 min): 0.57 % ID | biodistribution liver ([1]; 30 min): 10.11 % ID | biodistribution muscle ([1]; 30 min): 1.80 % ID | biodistribution skin ([1]; 30 min): 1.56 % ID | biodistribution spleen ([1]; 30 min): 0.01 % ID | biodistribution kidney ([1]; 120 min): 0.05 % ID | biodistribution liver ([1]; 120 min): 0.88 % ID | biodistribution muscle ([1]; 120 min): 0.48 % ID | biodistribution skin ([1]; 120 min): 0.24 % ID | biodistribution spleen ([1]; 120 min): 0.01 % ID | tissue uptake at 0.5 min [2, 3]: 1.93 %ID/g | tissue uptake at 1 min [2, 3]: 1.71 %ID/g | tissue uptake at 0.05 h ([2]; blood, 3 minutes, selected data, read-out: Blood): 1.16 %ID/g | tissue uptake at 5 min [2, 3]: 0.83 %ID/g | tissue uptake at 10 min [2, 3]: 0.71 %ID/g | tissue uptake at 0.5 min [2, 4]: 0.31 %ID/g | tissue uptake at 1 min [2, 4]: 0.32 %ID/g | tissue uptake at 0.05 h ([2]; bone, 3 min, read-out: biodistribution bone): 0.26 %ID/g | tissue uptake at 5 min [2, 4]: 0.25 %ID/g | tissue uptake at 10 min [2, 4]: 0.19 %ID/g | tissue uptake at 0.5 min [2, 5]: 0.14 %ID/g | tissue uptake at 1 min [2, 5]: 0.09 %ID/g | tissue uptake at 0.05 h ([2]; brain, 3 min, read-out: biodistribution brain): 0.06 %ID/g | tissue uptake at 5 min [2, 5]: 0.05 %ID/g | tissue uptake at 10 min [2, 5]: 0.04 %ID/g | tissue uptake at 0.5 min [2, 6]: 0.19 %ID/g | tissue uptake at 1 min [2, 6]: 0.17 %ID/g | tissue uptake at 0.05 h ([2]; eyes, 3 min, read-out: biodistribution eyes): 0.18 %ID/g | tissue uptake at 5 min [2, 6]: 0.17 %ID/g | tissue uptake at 10 min [2, 6]: 0.13 %ID/g | tissue uptake at 0.5 min [2, 7]: 0.75 %ID/g | tissue uptake at 1 min [2, 7]: 0.67 %ID/g | tissue uptake at 0.05 h ([2]; heart, 3 min, read-out: biodistribution heart): 0.46 %ID/g | tissue uptake at 5 min [2, 7]: 0.33 %ID/g | tissue uptake at 10 min [2, 7]: 0.27 %ID/g | tissue uptake at 0.05 h ([2]; kidney, 3 minutes, selected data, read-out: Kidney): 4.12 %ID/g | tissue uptake at 0.5 min [2, 8]: 6.73 %ID/g | tissue uptake at 1 min [2, 8]: 6.55 %ID/g | tissue uptake at 0.05 h ([2]; kidneys, 3 min, read-out: biodistribution kidneys): 4.12 %ID/g | tissue uptake at 5 min [2, 8]: 2.87 %ID/g | tissue uptake at 10 min [2, 8]: 2.72 %ID/g | tissue uptake at 0.5 min [2, 9]: 1.73 %ID/g | tissue uptake at 1 min [2, 9]: 2.01 %ID/g | tissue uptake at 0.05 h ([2]; liver, 3 minutes, selected data, read-out: Liver): 1.54 %ID/g | tissue uptake at 5 min [2, 9]: 1.34 %ID/g | tissue uptake at 10 min [2, 9]: 0.76 %ID/g | tissue uptake at 0.5 min [2, 10]: 1.15 %ID/g | tissue uptake at 1 min [2, 10]: 1.13 %ID/g | tissue uptake at 0.05 h ([2]; lungs, 3 min, read-out: biodistribution lungs): 0.8 %ID/g | tissue uptake at 5 min [2, 10]: 0.54 %ID/g | tissue uptake at 10 min [2, 10]: 0.46 %ID/g | tissue uptake at 0.5 min [2, 11]: 0.28 %ID/g | tissue uptake at 1 min [2, 11]: 0.27 %ID/g | tissue uptake at 0.05 h ([2]; muscle, 3 min, read-out: biodistribution muscle): 0.26 %ID/g | tissue uptake at 5 min [2, 11]: 0.27 %ID/g | tissue uptake at 10 min [2, 11]: 0.15 %ID/g | tissue uptake at 0.5 min [2, 12]: 0.49 %ID/g | tissue uptake at 1 min [2, 12]: 0.51 %ID/g | tissue uptake at 0.05 h ([2]; pancreas, 3 min, read-out: biodistribution pancreas): 0.44 %ID/g | tissue uptake at 5 min [2, 12]: 0.44 %ID/g | tissue uptake at 10 min [2, 12]: 0.3 %ID/g | tissue uptake at 0.5 min [2, 13]: 0.37 %ID/g | tissue uptake at 1 min [2, 13]: 0.43 %ID/g | tissue uptake at 0.05 h ([2]; skin, 3 min, read-out: biodistribution skin): 0.49 %ID/g | tissue uptake at 5 min [2, 13]: 0.53 %ID/g | tissue uptake at 10 min [2, 13]: 0.4 %ID/g | tissue uptake at 0.5 min [2, 14]: 0.53 %ID/g | tissue uptake at 1 min [2, 14]: 0.42 %ID/g | tissue uptake at 0.05 h ([2]; spleen, 3 min, read-out: biodistribution spleen): 0.26 %ID/g | tissue uptake at 5 min [2, 14]: 0.2 %ID/g | tissue uptake at 10 min [2, 14]: 0.15 %ID/g | tissue uptake at 0.5 min [2, 15]: 0.14 %ID/g | tissue uptake at 1 min [2, 15]: 0.28 %ID/g | tissue uptake at 0.05 h ([2]; stomach, 3 min, read-out: biodistribution stomach): 0.32 %ID/g | tissue uptake at 5 min [2, 15]: 0.11 %ID/g | tissue uptake at 10 min [2, 15]: 0.12 %ID/g | tissue uptake at 0.5 min [2, 16]: 0.68 %ID/g | tissue uptake at 1 min [2, 16]: 0.56 %ID/g | tissue uptake at 0.05 h ([2]; tail, 3 min, read-out: biodistribution tail): 0.8 %ID/g | tissue uptake at 5 min [2, 16]: 0.73 %ID/g | tissue uptake at 10 min [2, 16]: 0.83 %ID/g | tissue uptake at 0.5 min [2, 17]: 0.38 %ID/g | tissue uptake at 1 min [2, 17]: 0.35 %ID/g | tissue uptake at 0.05 h ([2]; thymus, 3 min, read-out: biodistribution thymus): 0.27 %ID/g | tissue uptake at 5 min [2, 17]: 0.19 %ID/g | tissue uptake at 10 min [2, 17]: 0.14 %ID/g | tissue uptake at 0.5 min [2, 18]: 1.42 %ID/g | tissue uptake at 1 min [2, 18]: 1.15 %ID/g | tissue uptake at 0.05 h ([2]; thyroid, 3 min, read-out: biodistribution thyroid): 1.17 %ID/g | tissue uptake at 5 min [2, 18]: 0.59 %ID/g | tissue uptake at 10 min [2, 18]: 0.4 %ID/g | tissue uptake at 0.5 min [2, 19]: 0.27 %ID/g | tissue uptake at 1 min [2, 19]: 0.34 %ID/g | tissue uptake at 0.05 h ([2]; total git, 3 min, read-out: biodistribution tot GIT): 0.59 %ID/g | tissue uptake at 5 min [2, 19]: 0.79 %ID/g | tissue uptake at 10 min [2, 19]: 1.22 %ID/g | biodistribution blood ([2]; 3 min): 1.16 % Injected dose per gram | biodistribution liver ([2]; 3 min): 1.54 % Injected dose per gram
